# Like-named read-outs stand apart in the source and are kept apart here.
# Legend:
# [1] = system: mice; details: cited from earlier work
# [2] = system: phagocytes; details: cited from earlier work
# [3] = system: laboratory animals; details: fed in very high doses; cited from earlier work
# [4] = system: neurons; details: cited from earlier work
# [5] = system: C. neoformans; experiment: Checkerboard minimum inhibitory concentration and synergy test (microtiter plate and agar plate analysis) on C. neoformans; type: cell-based, Cryptococcus neoformans; details: for Fold MIC decrease: added compound with other compound at 1/2 MIC vs alone; for 1/2 MIC: half of MIC, concentration used in the combination; for MIC: Cryptococcus neoformans; for MIC / synergistic effect of DDG isomers on antifungal effect of amphotericin B: 24 h; for synergistic effect of DDG isomers on antifungal effect of amphotericin B: 37° C. (FIG. 11)
# [6] = system: C. albicans; experiment: Checkerboard minimum inhibitory concentration and synergy test (microtiter plate and agar plate analysis) on Candida albicans; type: cell-based; details: for Fold MIC decrease: added compound with other compound at 1/2 MIC vs alone; for 1/2 MIC: half of MIC, concentration used in the combination; for MIC: Candida albicans, 24 h
# [7] = cited from earlier work
# [8] = system: human cells; details: cited from earlier work
# [9] = intravenous, 1 mg/kg, cited from earlier work
# [10] = system: erythrocytes; details: by binding to cholesterol in the cell membrane, causing anemia; cited from earlier work
# [11] = system: bacteria, rickettsiae, and viruses; details: cited from earlier work
# [12] = 25° C., agar plate, compound alone, read-out: MIC
# [13] = 25° C., microtiter plate, compound alone, read-out: MIC
# [14] = 37° C., agar plate, compound alone, read-out: MIC
# [15] = 37° C., microtiter plate, compound alone, read-out: MIC
# [16] = 25° C., agar plate, compound alone
# [17] = 25° C., microtiter plate, compound alone
# [18] = 37° C., agar plate, compound alone
# [19] = 37° C., microtiter plate, compound alone
structure (smiles),measurement,setting,value
"CCCCCCCCCCCCOCC(O)CO (racemic) [rac-1-DDG, rac-1-O-dodecylglycerol]",organ weights or body weights,"[1]; 1 g/kg/day in feed, 4 weeks",did not significantly alter the organ weights or body weights of mice
same,linoleolyl moieties of total lipids,"[1]; during feeding, 1 g/kg/day",concomitant decrease
same,saturated acyl moieties of total lipids,"[1]; during feeding, 1 g/kg/day",marked increase
same,lipids of organs and tissues,[1]; four weeks after removal of compound from diet,close resemblance to those of a control group
same,stimulation of phagocytes to ingest foreign substances,[2],stimulated
same,toxicity,[3],does not appear to be toxic
same,neuronal growth,[4],promote neuronal growth
same,Fold MIC decrease,"[5]; 25° C., agar plate",80
same,1/2 MIC,"[5]; 25° C., agar plate",5 µg/mL
same,Fold MIC decrease,"[5]; 25° C., microtiter plate",120
same,1/2 MIC,"[5]; 25° C., microtiter plate",7.5 µg/mL
same,Fold MIC decrease,"[5]; 37° C., agar plate",160
same,1/2 MIC,"[5]; 37° C., agar plate",10 µg/mL
same,Fold MIC decrease,"[5]; 37° C., microtiter plate",50
same,1/2 MIC,"[5]; 37° C., microtiter plate",7.5 µg/mL
same,MIC,[5]; [12],10 µg/mL
same,MIC,[5]; [13],15 µg/mL
same,MIC,"[5]; 25° C., microtiter plate, in presence of the other compound at 1/2 MIC (rac-1-DDG 7.5 or Amph. B 1.13 μg/ml), read-out: Resulting MIC of added compound",0.125 µg/mL
same,MIC,"[5]; 25° C., agar plate, in presence of the other compound at 1/2 MIC (rac-1-DDG 5 or Amph. B 1.13 μg/ml), read-out: Resulting MIC of added compound",0.125 µg/mL
same,MIC,[5]; [14],20 µg/mL
same,MIC,[5]; [15],15 µg/mL
same,MIC,"[5]; 37° C., agar plate, in presence of the other compound at 1/2 MIC (rac-1-DDG 10 or Amph. B 1.25 μg/ml), read-out: Resulting MIC of added compound",0.125 µg/mL
same,MIC,"[5]; 37° C., microtiter plate, in presence of the other compound at 1/2 MIC (rac-1-DDG 7.5 or Amph. B 0.75 μg/ml), read-out: Resulting MIC of added compound",0.3 µg/mL
same,Fold MIC decrease,"[6]; 25° C., agar plate",80
same,1/2 MIC,"[6]; 25° C., agar plate",10 µg/mL
same,Fold MIC decrease,"[6]; 25° C., microtiter plate",36
same,1/2 MIC,"[6]; 25° C., microtiter plate",5 µg/mL
same,Fold MIC decrease,"[6]; 37° C., agar plate",40
same,1/2 MIC,"[6]; 37° C., agar plate",7.5 µg/mL
same,Fold MIC decrease,"[6]; 37° C., microtiter plate",40
same,1/2 MIC,"[6]; 37° C., microtiter plate",7.5 µg/mL
same,MIC,[6]; [12],20 µg/mL
same,MIC,[6]; [13],10 µg/mL
same,MIC,"[6]; 25° C., agar plate, in presence of the other compound at 1/2 MIC (rac-1-DDG 10 or Amph. B 1.13 μg/ml), read-out: Resulting MIC of added compound",0.25 µg/mL
same,MIC,"[6]; 25° C., microtiter plate, in presence of the other compound at 1/2 MIC (rac-1-DDG 5 or Amph. B 1 μg/ml), read-out: Resulting MIC of added compound",0.281 µg/mL
same,MIC,[6]; [14],15 µg/mL
same,MIC,[6]; [15],15 µg/mL
same,MIC,"[6]; 37° C., agar plate, in presence of the other compound at 1/2 MIC (rac-1-DDG 7.5 or Amph. B 1 μg/ml), read-out: Resulting MIC of added compound",0.375 µg/mL
same,MIC,"[6]; 37° C., microtiter plate, in presence of the other compound at 1/2 MIC (rac-1-DDG 7.5 or Amph. B 0.5 μg/ml), read-out: Resulting MIC of added compound",0.375 µg/mL
same,solubility in water,[7],relatively good solubility in water
"CCCCCCCCCCCCOC(CO)CO [2-DDG, 2-O-dodecylglycerol]",synergistic effect of DDG isomers on antifungal effect of amphotericin B,[5],synergistic effect
Nc1nc(=O)[nH]cc1F [Fluorocytosine],toxicity to human cells,[8],toxic to human cells
"CCCCCCCCCCCCOC[C@@H](O)CO [sn-1-DDG, sn-1-O-dodecylglycerol]",synergistic effect of DDG isomers on antifungal effect of amphotericin B,[5],synergistic effect
"CCCCCCCCCCCCOC[C@H](O)CO [Sn-3-DDG, sn-3-O-dodecylglycerol]",synergistic effect of DDG isomers on antifungal effect of amphotericin B,[5],synergistic effect
"C[C@@H]1[C@H](O)[C@@H](C)/C=C/C=C/C=C/C=C/C=C/C=C/C=C/[C@H](O[C@@H]2O[C@H](C)[C@@H](O)[C@H](N)[C@@H]2O)C[C@@H]2O[C@](O)(C[C@@H](O)C[C@@H](O)[C@H](O)CC[C@@H](O)C[C@@H](O)CC(=O)O[C@H]1C)C[C@H](O)[C@H]2C(=O)O [amphotericin B, [1R-(1R*,3S*, 5R*,6R*,9R*, 11R*,15S*,16R*,17R*,18S*,19E,21E,23E,25E,27E,29E,31E,33R*, 35S*,36R*,37S,)]-33-[(3-amino-3,6-dideoxy-β-D-mannopyranosyl)oxy]1,3,5,6,9,11,17,37-octahydroxy-15,16,18-trimethyl-13-oxo-14,39-dioxabicyclo-[33.3.1]nonatriaconta-19,21,23,25,27,29,31-heptaene-36-carboxylic acid]",peak serum concentrations,[9]; by end of infusion,2-3 micrograms/ml
same,serum concentration,[9]; for up to 24 hours after infusion,above 0.5 micrograms/ml
same,damage to erythrocytes,[10],damages erythrocytes
same,Fold MIC decrease,"[5]; 25° C., agar plate",72
same,1/2 MIC,"[5]; 25° C., agar plate",1.13 µg/mL
same,Fold MIC decrease,"[5]; 25° C., microtiter plate",48
same,1/2 MIC,"[5]; 25° C., microtiter plate",1.12 µg/mL
same,1/2 MIC,"[5]; 25° C., microtiter plate, listed as Amph. B",1.13 µg/mL
same,Fold MIC decrease,"[5]; 37° C., agar plate",80
same,1/2 MIC,"[5]; 37° C., agar plate",1.25 µg/mL
same,Fold MIC decrease,"[5]; 37° C., microtiter plate",12.7
same,1/2 MIC,"[5]; 37° C., microtiter plate",0.75 µg/mL
same,MIC,[5]; [16],2.25 µg/mL
same,MIC,[5]; [17],2.25 µg/mL
same,MIC,[5]; [18],2.5 µg/mL
same,MIC,[5]; [19],1.5 µg/mL
same,MIC,"[5]; read-out: Resulting MIC of added compound, 25° C., 24 h, microtiter plate, in presence of the other compound at 1/2 MIC (rac-1-DDG 7.5 or Amph. B 1.13 μg/ml)",0.047 µg/mL
same,MIC,"[5]; read-out: Resulting MIC of added compound, 25° C., agar plate, in presence of the other compound at 1/2 MIC (rac-1-DDG 5 or Amph. B 1.13 μg/ml)",0.0313 µg/mL
same,MIC,"[5]; read-out: Resulting MIC of added compound, 37° C., agar plate, in presence of the other compound at 1/2 MIC (rac-1-DDG 10 or Amph. B 1.25 μg/ml)",0.0313 µg/mL
same,MIC,"[5]; read-out: Resulting MIC of added compound, 37° C., microtiter plate, in presence of the other compound at 1/2 MIC (rac-1-DDG 7.5 or Amph. B 0.75 μg/ml)",0.118 µg/mL
same,Fold MIC decrease,"[6]; 25° C., agar plate",72
same,1/2 MIC,"[6]; 25° C., agar plate",1.13 µg/mL
same,Fold MIC decrease,"[6]; 25° C., microtiter plate",64
same,1/2 MIC,"[6]; 25° C., microtiter plate",1 µg/mL
same,Fold MIC decrease,"[6]; 37° C., agar plate",10.6
same,1/2 MIC,"[6]; 37° C., agar plate",1 µg/mL
same,Fold MIC decrease,"[6]; 37° C., microtiter plate",5.3
same,1/2 MIC,"[6]; 37° C., microtiter plate",0.5 µg/mL
same,MIC,[6]; [16],2.25 µg/mL
same,MIC,[6]; [17],2 µg/mL
same,MIC,[6]; [18],2 µg/mL
same,MIC,[6]; [19],1 µg/mL
same,MIC,"[6]; read-out: Resulting MIC of added compound, 25° C., agar plate, in presence of the other compound at 1/2 MIC (rac-1-DDG 10 or Amph. B 1.13 μg/ml)",0.0313 µg/mL
same,MIC,"[6]; read-out: Resulting MIC of added compound, 25° C., microtiter plate, in presence of the other compound at 1/2 MIC (rac-1-DDG 5 or Amph. B 1 μg/ml)",0.0313 µg/mL
same,MIC,"[6]; read-out: Resulting MIC of added compound, 37° C., agar plate, in presence of the other compound at 1/2 MIC (rac-1-DDG 7.5 or Amph. B 1 μg/ml)",0.188 µg/mL
same,MIC,"[6]; read-out: Resulting MIC of added compound, 37° C., microtiter plate, in presence of the other compound at 1/2 MIC (rac-1-DDG 7.5 or Amph. B 0.5 μg/ml)",0.188 µg/mL
same,solubility in water,[7]; crystalline,insoluble in water
same,"effect on bacteria, rickettsiae, and viruses",[11],no effect

# Reference: patent US5444052A, “Amphotericin B composition with enhanced fungal activity” (Temple University of the Commonwealth System of Higher …, priority 1993, dated 1995)
